We go through 33 compounds from US11603349B2, “Anti-fibrotic compounds” (Certa Therapeutics Pty Ltd, priority 2017, dated 2023).

Molecules are shown by their SMILES.

Series [1] has as its system TGF-β induced [14C]-proline incorporation in rat mesangial cells. In words: [14C]-proline incorporation assay (collagen biosynthesis). The series is classed as cell-based. The conditions noted are these: Rattus norvegicus, Mesangial cell, 44 h.
Series [2] in a line: MTS tetrazolium reduction cell viability assay. As to conditions: rat, rat mesangial cells (1097/IRMC cells), TGF-β1 stimulated, CC50 (μM), vs 1% DMSO vehicle. A general note: Tetrazolium assays rely on reduction of a dye to a coloured formazan, in cell work by metabolically active cells.
Where [3] appears, read: inhibition of TGF-β1 (1 ng/ml) induced [14C]-proline incorporation, IRMC cells.

Broadly, the IC50 is the concentration that inhibits the measured activity by half. The low end stands for greater potency in that assay, the high end for weaker potency in that assay. As a reminder, the CC50 is the concentration giving 50% cytotoxicity. Higher therefore signals better tolerance by the cells. `C#CCOc1ccc(/C=C/C(=O)n2nc(O)c3ccccc32)cc1OC` [Example 15, (E)-1-(3-hydroxy-1H-indazol-1-yl)-3-(3-methoxy-4-(prop-2-yn-1-yloxy)phenyl)prop-2-en-1-one] yielded an IC50 in series [1] (setting [3]) of 25.2 µM. This compound had a half-maximal cytotoxic concentration (CC50) at 48 h in series [2] of 304 µM.

Turning to `COc1ccc(/C=C/C(=O)Nc2ccccc2C(=O)O)cc1OCc1cnn(C)c1` [Example 66, (E)-2-(3-(4-methoxy-3-((1-methyl-1H-pyrazol-4-yl)methoxy)phenyl)acrylamido)benzoic acid], in series [1] (setting [3]), the 50% inhibitory concentration (IC50) is 17 µM. In series [2], this compound registered a cytotoxic concentration (CC50) at 48 h of more than 300 µM.

As for `COc1ccc(/C=C/C(=O)Nc2ccccc2C(=O)O)cc1N1CCOCC1` [Example 101, (E)-2-(3-(4-methoxy-3-morpholinophenyl)acrylamido)benzoic Acid], the concentration for half-maximal inhibition (IC50) in series [1] (setting [3]) was 17 µM. For the same compound, half-maximal cytotoxicity in series [2] (CC50 at 48 h) was put at 119 µM.

In series [1] (setting [3]), `CN1C(=O)COc2cc(/C=C/C(=O)Nc3ccccc3C(=O)O)ccc21` [Example 109, (E)-2-(3-(4-methyl-3-oxo-3,4-dihydro-2H-benzo[b][1,4]oxazin-7-yl)acrylamido)benzoic Acid] returned an IC50 of 24.3 µM. The same compound registered a CC50 at 48 h in series [2] of more than 300 µM.

In turn, `C#CCNCc1ccc(/C=C/C(=O)Nc2ccccc2C(=O)O)cc1OC` [Example 75, (E)-2-(3-(3-methoxy-4-((prop-2-yn-1-ylamino)methyl)phenyl)acrylamido)benzoic acid] showed an IC50 in series [1] (setting [3]) of 27.6 µM. In addition, the CC50 at 48 h in series [2] was more than 300 µM.

Compound `C#CCOc1ccc(/C=C/C(=O)Nc2ccccc2Br)cc1OC` [Example 4, (E)-N-(2-bromophenyl)-3-(3-methoxy-4-(prop-2-yn-1-yloxy)phenyl)acrylamide] returned an IC50 in series [1] (setting [3]) of 4.32 µM. In series [2], this compound gave a half-maximal cytotoxic concentration (CC50) at 48 h of 323 µM.

In series [1] (setting [3]), `C#CCOc1ccc(/C=C/C(=O)n2nc(O)c3ccccc32)cc1CC` [Example 126, (E)-3-(3-ethyl-4-(prop-2-yn-1-yloxy)phenyl)-1-(3-hydroxy-1H-indazol-1-yl)prop-2-en-1-one] had a half-maximal inhibitory concentration (IC50) of 3.81 µM. Also, the half-maximal cytotoxic concentration (CC50) at 48 h in series [2] was more than 27.5 µM.

`COc1ccc(C2CC2C(=O)Nc2cccc(S(C)(=O)=O)c2)cc1OCc1cnn(C)c1` (stereo not drawn) [Example 158, 2-(4-methoxy-3-((1-methyl-1H-pyrazol-4-yl)methoxy)phenyl)-N-(3-(methylsulfonyl)phenyl)cyclopropane-1-carboxamide] displayed an IC50 in series [1] (setting [3]) of 25.9 µM. The midpoint of cytotoxicity in series [2], the CC50 at 48 h, lay at 68.8 µM.

`C#CCOc1ccc(/C=C/C(=O)N2CCC(O)c3ccccc32)cc1OC` (stereo not drawn) [Example 14, (E)-1-(4-hydroxy-3,4-dihydroquinolin-1(2H)-yl)-3-(3-methoxy-4-(prop-2-yn-1-yloxy)phenyl)prop-2-en-1-one] showed an IC50 in series [1] (setting [3]) of 10.4 µM. The compound further showed a CC50 at 48 h in series [2] of 48.9 µM.

Take `C#CCOc1ccc(/C=C/C(=O)Nc2ccccc2-c2noc(C)n2)cc1OC` [Example 18, (E)-3-(3-methoxy-4-(prop-2-yn-1-yloxy)phenyl)-N-(2-(5-methyl-1,2,4-oxadiazol-3-yl)phenyl)-acrylamide]: in series [1] (setting [3]), the IC50 was found to be 17.2 µM. In series [2], it took 151 µM to reach half-maximal cytotoxicity (CC50 at 48 h).

`C#CCOc1ccc(/C=C/C(=O)Nc2ccccc2-c2noc(=O)[nH]2)cc1OC` [Example 19, (E)-3-(3-methoxy-4-(prop-2-yn-1-yloxy)phenyl)-N-(2-(5-oxo-4,5-dihydro-1,2,4-oxadiazol-3-yl)phenyl)acrylamide]: in series [1] (setting [3]), the half-maximal inhibitory concentration (IC50) was determined as 19.7 µM. In series [2], this compound displayed a half-maximal cytotoxic concentration (CC50) at 48 h of 122 µM.

`COc1ccc(/C=C/C(=O)Nc2ccccc2C#N)c(OCCN(C)C)c1` [Example 94, (E)-N-(2-cyanophenyl)-3-[2-[2-(dimethylamino)ethoxy]4-methoxy-phenyl]prop-2-enamide]: in series [1] (setting [3]), the IC50 was found to be 21.7 µM. In addition, the half-maximal cytotoxic concentration (CC50) at 48 h in series [2] stood at 35 µM.

`C#CCOc1ccc(C2CC2C(=O)Nc2ccc(F)cc2)cc1OC` (stereo not drawn) [Example 133, N-(4-fluorophenyl)-2-(3-methoxy-4-(prop-2-yn-1-yloxy)phenyl)cyclopropanecarboxamide] gave an IC50 in series [1] (setting [3]) of 23.4 µM. This compound also showed a CC50 at 48 h in series [2] of more than 300 µM.

In turn, `C#CCOc1ccc(/C=C/C(=O)Nc2ccccc2F)cc1CC` [Example 123, (E)-3-(3-ethyl-4-(prop-2-yn-1-yloxy)phenyl)-N-(2-fluorophenyl)acrylamide] came in with a 50% inhibitory concentration (IC50) in series [1] (setting [3]) of 19.3 µM. Moreover, the CC50 at 48 h in series [2] was more than 300 µM.

`C#CCOc1ccc(/C=C/C(=O)Nc2ccccc2C#N)c(OCCN(C)C)c1OC` [Example 77]: in series [1] (setting [3]), 4.69 µM corresponded to half-maximal inhibition (IC50). The 50% cytotoxic concentration (CC50) at 48 h in series [2] was determined as 26.5 µM.

With `C#CCOc1ccc(/C=C/C(=O)Nc2ccccc2C(=O)NCC2CCN(C)CC2)cc1OC` [Example 37, (E)-2-(3-(3-methoxy-4-(prop-2-yn-1-yloxy)phenyl)acrylamido)-N-((1-methylpiperidin-4-yl)methyl)benzamide], half-maximal inhibition in series [1] (setting [3]) (IC50) required 18 µM. This compound also yielded a CC50 at 48 h in series [2] of 29.2 µM.

Consider `C#CCOc1ccc(C2CC2C(=O)n2nc(O)c3ccccc32)cc1OC` (stereo not drawn) [Example 134, (3-hydroxy-1H-indazol-1-yl)(2-(3-methoxy-4-(prop-2-yn-1-yloxy)phenyl)cyclopropyl)methanone], for which the IC50 in series [1] (setting [3]) was 17.5 µM. Moreover, the CC50 at 48 h in series [2] was more than 300 µM.

Consider `COc1ccc(/C=C/C(=O)Nc2ccccc2C(=O)O)cc1OCCc1ccccn1` [Example 62, (E)-2-(3-(4-methoxy-3-(2-(pyridin-2-yl)ethoxy)phenyl)acrylamido)benzoic acid], for which the IC50 in series [1] (setting [3]) came to 49 µM. The compound further gave a half-maximal cytotoxic concentration (CC50) at 48 h in series [2] of 321 µM.

For the compound `COc1ccc(/C=C/C(=O)Nc2ccccc2C(=O)O)c(OCc2cccnc2)c1OC` [Example 96, (E)-2-(3-(3,4-dimethoxy-2-(pyridin-3-ylmethoxy)phenyl)acrylamido)benzoic Acid], the IC50 in series [1] (setting [3]) came to 33.6 µM. The same compound had a CC50 at 48 h in series [2] of more than 300 µM.

In series [1] (setting [3]), `COc1cc(/C=C/C(=O)Nc2ccccc2C(=O)O)ccc1OCC1COC1` [Example 54, (E)-2-(3-(3-methoxy-4-(oxetan-3-ylmethoxy)phenyl)acrylamido)benzoic acid] showed a half-maximal inhibitory concentration (IC50) of 24 µM. Besides, the cytotoxic concentration (CC50) at 48 h in series [2] was more than 300 µM.

On to `C#CCOc1ccc(/C=C/C(=O)Nc2ccccc2-c2cnn(C)c2)cc1OC` [Example 22, (E)-3-(3-methoxy-4-(prop-2-yn-1-yloxy)phenyl)-N-(2-(1-methyl-1H-pyrazol-4-yl)phenyl)-acrylamide], for which the IC50 in series [1] is 16.4 µM. The same compound had a CC50 at 48 h in series [2] of 240 µM.

In turn, `COc1ccc(C2CC2C(=O)Nc2cccc(Cl)c2)cc1OCc1cnn(C)c1` (stereo not drawn) [Example 156, N-(3-chlorophenyl)-2-(4-methoxy-3-((1-methyl-1H-pyrazol-4-yl)methoxy)phenyl)cyclopropane-1-carboxamide] returned a half-inhibitory concentration (IC50) in series [1] (setting [3]) of 17.8 µM. This compound also displayed a cytotoxic concentration (CC50) at 48 h in series [2] of more than 100 µM.

In series [1] (setting [3]), `C#CCOc1ccc(/C=C/C(=O)Nc2ccccc2-c2c[nH]cn2)cc1OC` [Example 25, (E)-N-(2-(1H-imidazol-4-yl)phenyl)-3-(3-methoxy-4-(prop-2-yn-1-yloxy)phenyl)acrylamide] had a 50% inhibitory concentration (IC50) of 45.5 µM. This compound displayed a half-maximal cytotoxic concentration (CC50) at 48 h in series [2] of more than 300 µM.

In series [1] (setting [3]), `C#CCOc1ccc(/C=C/C(=O)Nc2ccccc2C(=O)O)c(OC2CCNC2)c1OC` (stereo not drawn) [Example 80, 2-[[(E)-3-(3-methoxy-4-prop-2-ynoxy-2-pyrrolidin-3-yloxyphenyl)prop-2-enoyl]amino]benzoic acid] came in with an IC50 of 24.5 µM. This compound also showed a CC50 at 48 h in series [2] of more than 100 µM.

Take `COc1ccc(C2CC2C(=O)Nc2ccc(F)cc2)c(OCCN(C)C)c1OC` (stereo not drawn) [Example 122, 2-(2-(2-(dimethylamino)ethoxy)-3,4-dimethoxyphenyl)-N-(4-fluorophenyl)cyclopropane-1-carboxamide]: in series [1] (setting [3]), the IC50 amounted to 17.2 µM. The 50% cytotoxic concentration (CC50) at 48 h in series [2] worked out at 234 µM.

On to `C#CCOc1ccc(/C=C/C(=O)Nc2ccccc2C(=O)O)c(OCCN2CCOCC2)c1OC` [Example 84, 2-[[(E)-3-[3-methoxy-2-(2-morpholinoethoxy)-4-prop-2-ynoxy-phenyl]prop-2-enoyl]amino]benzoic acid], for which the midpoint of inhibition in series [1] (setting [3]), the IC50, lay at 14.7 µM. For the same compound, in series [2], the CC50 at 48 h was more than 300 µM.

Consider `COc1ccc(/C=C/C(=O)N2CCOc3ccccc32)c(OCCN(C)C)c1OC` [Example 115, (E)-1-(2H-benzo[b][1,4]oxazin-4(3H)-yl)-3-(2-(2-(dimethylamino)ethoxy)-3,4-dimethoxyphenyl)-prop-2-en-1-one], for which the IC50 in series [1] (setting [3]) was found to be 7.03 µM. In series [2], this compound had a 50% cytotoxic concentration (CC50) at 48 h of 45.4 µM.

For the compound `COc1cc(/C=C/C(=O)Nc2ccccc2C(=O)O)ccc1CN1CCOCC1` [Example 69, (E)-2-(3-(3-methoxy-4-(morpholinomethyl)phenyl)acrylamido)benzoic acid], the half-inhibitory concentration (IC50) in series [1] (setting [3]) was 48.4 µM. This compound came in with a half-maximal cytotoxic concentration (CC50) at 48 h in series [2] of 691 µM.

Regarding `CN1Cc2ccc(/C=C/C(=O)Nc3ccccc3C(=O)O)cc2C1=O` [Example 108, (E)-2-(3-(2-methyl-3-oxoisoindolin-5-yl)acrylamido)benzoic acid], in series [1] (setting [3]), the concentration for half-maximal inhibition (IC50) was determined as 40.4 µM. The compound further displayed a cytotoxic concentration (CC50) at 48 h in series [2] of more than 300 µM.

In the case of `C#CCOc1ccc(/C=C/C(=O)Nc2ccccc2C(=O)NCCN2CCN(C)CC2)cc1OC` [Example 34, (E)-2-(3-(3-methoxy-4-(prop-2-yn-1-yloxy)phenyl)acrylamido)-N-(2-(4-methylpiperazin-1-yl)ethyl)benzamide], the IC50 in series [1] (setting [3]) came to 28.4 µM. In series [2], this compound returned a half-maximal cytotoxic concentration (CC50) at 48 h of 37.3 µM.

Turning to `C#CCOc1ccc(/C=C/C(=O)Nc2ccc(C#N)cc2)cc1CC` [Example 124, (E)-N-(4-cyanophenyl)-3-(3-ethyl-4-(prop-2-yn-1-yloxy)phenyl)acrylamide], the IC50 in series [1] (setting [3]) was 34.8 µM. This compound returned a CC50 at 48 h in series [2] of more than 300 µM.

`C#CCOc1ccc(/C=C/C(=O)Nc2ccccc2C(=O)NCCCN(C)C)cc1OC` [Example 32, (E)-N-(3-(dimethylamino)propyl)-2-(3-(3-methoxy-4-(prop-2-yn-1-yloxy)phenyl)acrylamido) benzamide]: the half-maximal inhibitory concentration (IC50) in series [1] (setting [3]) worked out at 27.4 µM. Besides, the 50% cytotoxic concentration (CC50) at 48 h in series [2] was 32 µM.

On to `C#CCOc1ccc(/C=C/C(=O)Nc2ccccc2-c2ncon2)cc1OC` [Example 17, (E)-N-(2-(1,2,4-oxadiazol-3-yl)phenyl)-3-(3-methoxy-4-(prop-2-yn-1-yloxy)phenyl)acrylamide], for which half-maximal inhibition in series [1] (setting [3]) (IC50) required 31.6 µM. The same compound came in with a CC50 at 48 h in series [2] of more than 300 µM.
